Values of other authors as cited in US8486463B1, “Cosmetic composition comprising aloe vera and caprylyl salicylic acid and method of making” (L'Oreal, priority 2012, dated 2013).

Details: based on temperature and purity level

For `O` [water], the pH is given as 7 and the surface tension is given as 55.73 dyne/cm.
